Patent US12162904B2, “Mannose derivative and application thereof” (priority 2021, dated 2024)

How the values were obtained:
[1] = Determination of lipid-water partition coefficient (n-octanol/PBS); format: physicochemical; details: n-octanol / PBS 0.025 M, pH 7.4
Experimental: To a 5 mL centrifuge tube were added 100 μL of a ^99mTc-CN7DM solution with a radioactivity of 10 μCi, 1 mL of n-octanol and 900 μL of phosphate buffered saline (PBS) (0.025 M and pH 7.4). The mixture was vortexed at a rotation speed of 2,500 rpm for 3 min, subjected to standing for stratification, and centrifuged at 9,000 rpm in a centrifuge for 5 min. Three samples (each for 100 μL) were taken from each of the two phases, and determined by a γ-counter for the radioactivity counts.

[2] = Stability in normal saline at room temperature (radiochemical purity by TLC); format: physicochemical; details: 4 h
Experimental: (§1) The radiochemical purity of ^99mTc-CN7DM was determined by TLC after being placed in normal saline at room temperature and in mouse serum at 37° C. for 4 h.

[3] = Stability in mouse serum at 37° C. (radiochemical purity by TLC); format: in vitro ADME; details: 4 h
Experimental: as §1

mice bearing S180 tumors = assay: Biodistribution determination in tumor-bearing mice; format: in vivo; details: for Blood uptake / Bone uptake / Heart uptake / Kidney uptake / Liver uptake / Lung uptake / Muscle uptake / Small intestine uptake / Spleen uptake / Thyroid gland uptake / Tumor uptake: n = 5, mean ± SD; for Tumor uptake: S180 tumor
Experimental: 0.1 mL of the ^99mTc-CN7DM labeling solution (370 kBq) was injected into mice bearing S180 tumors through the tail vein. After recording the injection time, the mice were subjected to sacrificing by cervical […] at different time points of 30 min and 120 min (5 mice were executed at each time), dissecting, taking out tissues or organs of interest such as heart, liver, lungs, kidneys, spleen, bone, muscles, small intestine, blood and tumors. A radioactivity count of each of the tissues or organs was measured by the γ-counter, and uptake value of each of the tissues or organs in % ID/g was obtained by converting a mass of each of the tissues or organs.

[4] = 30 min after tail vein injection
[5] = 120 min after tail vein injection

## [99Tc+].[C-]#[N+]CCCCCCCC(=O)NC1C(O)OC(CO)C(O)C1O.[C-]#[N+]CCCCCCCC(=O)NC1C(O)OC(CO)C(O)C1O.[C-]#[N+]CCCCCCCC(=O)NC1C(O)OC(CO)C(O)C1O.[C-]#[N+]CCCCCCCC(=O)NC1C(O)OC(CO)C(O)C1O.[C-]#[N+]CCCCCCCC(=O)NC1C(O)OC(CO)C(O)C1O.[C-]#[N+]CCCCCCCC(=O)NC1C(O)OC(CO)C(O)C1O (centres unmarked) [^99mTc-CN7DM]
[1]
  log P (lipid-water partition coefficient): −3.15±0.06
[2]
  radiochemical purity after standing (stability): greater than 90%
[3]
  radiochemical purity after standing (stability): greater than 90%
Mice bearing S180 tumors; [4]
  Tumor/Blood ratio: 3.79
  Tumor/Muscle ratio: 3.25
  Blood uptake: 1.61 ± 0.17 % ID/g
  Bone uptake: 1.41 ± 0.17 % ID/g
  Heart uptake: 2.08 ± 0.26 % ID/g
  Kidney uptake: 6.22 ± 0.91 % ID/g
  Liver uptake: 2.91 ± 0.23 % ID/g
  Lung uptake: 1.86 ± 0.19 % ID/g
  Muscle uptake: 1.88 ± 0.16 % ID/g
  Small intestine uptake: 1.05 ± 0.20 % ID/g
  Spleen uptake: 1.23 ± 0.11 % ID/g
  Thyroid gland uptake: 0.04 ± 0.01 % ID
  Tumor uptake: 6.11 ± 0.76 % ID/g
Mice bearing S180 tumors; [5]
  Tumor/Blood ratio: 63.48
  Tumor/Muscle ratio: 6.18
  Blood uptake: 0.09 ± 0.02 % ID/g
  Bone uptake: 0.76 ± 0.17 % ID/g
  Heart uptake: 1.40 ± 0.14 % ID/g
  Kidney uptake: 3.12 ± 0.82 % ID/g
  Liver uptake: 2.13 ± 0.46 % ID/g
  Lung uptake: 0.76 ± 0.20 % ID/g
  Muscle uptake: 0.96 ± 0.12 % ID/g
  Small intestine uptake: 0.42 ± 0.13 % ID/g
  Spleen uptake: 0.80 ± 0.15 % ID/g
  Thyroid gland uptake: 0.02 ± 0.00 % ID
  Tumor uptake: 5.92 ± 0.30 % ID/g
